Series [1] can be described thus: Ocular tissue distribution at equimolar concentration after eye dropping or intravitreal injection, ELISA (Example 5). It is filed as in vivo, C57BL/6J mice. The note with it: for active molecules that can reach the RPE/choroid complex: 5 µL per eye; for active molecules that can reach the RPE/choroid complex / maintenance time at the RPE/choroid complex: equimolar concentration. The protocol:
Experimental process: All the mice in the eye drop groups were administered bilateral eye drops 1 time, with 5 µL of the corresponding drug solution in each eye. At the 6 time points of 0 h, 1 h, 3 h, 7 h, 12 h, and 24 h after the completion of administration, the mice in the corresponding groups were respectively subjected to eyeball removal and blood collection, the collected whole blood was immediately centrifuged at 6,000 rpm for 5 minutes, and then, a supernatant was sucked and stored as a sample to be tested. Additionally, 3 tissue sites, namely the vitreous body, the retina, and the RPE/choroid complex, were isolated from an eyeball under a stereomicroscope, into which a phosphate buffer solution (PBS) was added at 1:10 for dilution, followed by grinding and centrifugation at 12,000 rpm for 5 minutes. A supernatant was sucked to serve as a sample to be tested. Subsequently, the concentration of the fusion polypeptide AJ007 or the multifunctional fusion polypeptide VI (HM-1) in each tissue was detected by an enzyme-linked immunosorbent assay (ELISA) method. The ELISA method is as follows: • (1) coating: diluting HM-1 with a certain concentration of a coating solution (CBS) to 1 µg/mL, adding the diluted solution into a microplate at 100 µL per well, and standing overnight at 4°C; • (2) plate washing: discarding the coating solution, adding 265 µL of a PBST washing solution to each well, washing 3 times for 3 minutes each time, and beating to dryness; • (3) blocking: adding 200 µL of a 1% BSA blocking solution to each well, placing the solution in a water bath at 37°C for 1.5 hours, repeating the plate washing process, and beating to dryness; • (4) addition of a sample to be tested and an antibody: first, adding 100 µL of the sample to be tested to a microplate, then adding 100 µL of an HM-1 monoclonal antibody dilution solution at a certain concentration, setting 2-3 replicate wells, shaking uniformly on a shaker at 37°C for 2 minutes, then transferring the mixture to a water bath pot for placement at 37°C for 2 hours, taking out the mixture after a thorough reaction, and repeating the plate washing process; • (5) reaction with an enzyme-labeled secondary antibody: adding a certain concentration of HRP enzyme-labeled goat anti-mouse IgG at 100 µL per well for incubation at 37°C for 1.5 hours, repeating the plate washing process, and beating to dryness; • (6) addition of a substrate: adding 100 µL of a TMB substrate chromogenic solution to each well for color development at room temperature in the dark for a certain period of time; • (7) termination: adding 50 µL of a termination solution to each well to terminate the reaction; and • (8) detection: reading an OD value of each well at 450 nm using a microplate reader.
This example provides an ocular tissue distribution comparison experiment of the polypeptide eye drops (AJ007 eye drops) in Example 2 with an equimolar concentration of the multifunctional fusion polypeptide VI (HM-1), a multifunctional fusion polypeptide VI preparation (HM-1 preparation, with a polypeptide being HM-1 and a formulation of other auxiliary materials being the same as the AJ007 eye drops), a fusion polypeptide AJ007 preparation (TAT-HM-1, with a polypeptide being AJ007 and pure water as a vehicle) after eye dropping, and the multifunctional fusion polypeptide VI (HM-1) after intravitreal injection, which is specifically described below.
Animal grouping: […] C57BL/6J mice were randomly divided into a total of 7 time point groups, including 0 h, 10 min, 1 h, 3 h, 7 h, 12 h, and 24 h, with 2 mice in each group.
Experimental process: All the mice in the eye drop administration groups were administered bilateral eye drops 1 time, with 5 µL of a corresponding drug solution dropped into each eye, while 5 µL of a corresponding drug solution was injected into both eyes in the HM-1 intravitreal injection group. […]
A general note: In an ELISA, binding on a coated surface is turned into a signal by an enzyme label.

The conditions of series [2]: cited from earlier work.

This is an account of results in patent publication EP4725551A1, “FUSION POLYPEPTIDE AJ007 AND USE THEREOF” (Nanjing Anji Biotechnology Co., Ltd., priority 2023, dated 2026).

Where two headings read alike, the source gives them in different places. Residues, ends and D or L forms follow the SMILES beside them.

In the case of `C[C@H](NC(=O)CNC(=O)[C@H](CCCNC(=N)N)NC(=O)[C@H](CCCNC(=N)N)NC(=O)[C@H](CCCNC(=N)N)NC(=O)[C@H](CCCNC(=N)N)NC(=O)[C@H](CCC(N)=O)NC(=O)[C@H](CCCNC(=N)N)NC(=O)[C@H](CCCNC(=N)N)NC(=O)[C@H](CCCCN)NC(=O)[C@H](CCCCN)NC(=O)[C@H](CCCNC(=N)N)NC(=O)CNC(=O)[C@@H](N)Cc1ccc(O)cc1)C(=O)N[C@@H](CC(=O)O)C(=O)N[C@@H](CCCNC(=N)N)C(=O)N[C@@H](C)C(=O)NCC(=O)NCC(=O)NCC(=O)NCC(=O)N[C@@H](CCCNC(=N)N)C(=O)NCC(=O)N[C@@H](CC(=O)O)C(=O)O` [AJ007] (H-YGRKKRRQRRRRGADRAGGGGRGD-OH), the “ability to penetrate through the posterior segment of ocular, increase compared with HM-1” value in series [1] (eye dropping) is recorded as “approximately 600 times”. Besides, the “active molecules that can reach the RPE/choroid complex” value in series [1] (single eye dropping) is 6291.38 ng/mL; in series [1] (single eye dropping, listed as TAT-HM-1), 843.28 ng/mL. In addition, the “maintenance time at the RPE/choroid complex” value in series [1] (single eye dropping) is “the maintenance time is also shorter”.
As to `C[C@H](NC(=O)CNC(=O)[C@@H](N)CCCNC(=N)N)C(=O)N[C@@H](CC(=O)O)C(=O)N[C@@H](CCCNC(=N)N)C(=O)N[C@@H](C)C(=O)NCC(=O)NCC(=O)NCC(=O)NCC(=O)N[C@@H](CCCNC(=N)N)C(=O)NCC(=O)N[C@@H](CC(=O)O)C(=O)O` [HM-1, Arg-Gly-Ala-Asp-Arg-Ala-Gly-Gly-Gly-Gly-Arg-Gly-Asp] (H-RGADRAGGGGRGD-OH), the entries for the “active molecules that can reach the RPE/choroid complex” value in series [1] (intravitreal injection) and in series [1] (single eye dropping) were “approximately 5729.7 ng/mL” and “less than 10 ng/mL”, respectively. The “maintenance time at the RPE/choroid complex” value in series [1] (intravitreal injection) is given as “the maintenance time is shorter”; in series [1] (single eye dropping), “very short”.
As for axitinib, in series [2] (in vivo), the “concentration reaching the retina after eye dropping, increase” value is 5-10 times.
Take bevacizumab: the “ability to penetrate through and enter the posterior segment of the eye after eye dropping, increase” value in series [2] (after linking to a cell-penetrating peptide CPP) is reported as “approximately 10 times”.
For ranibizumab, the “concentration reaching the retina after eye dropping, increase” value in series [2] (after linking to a cell-penetrating peptide, patents CN114073774A, CN114668717A) is listed as “approximately 100 times”.
